Test results taken from US20240148821A1, “PHARMACEUTICAL USE OF CYCLIC PEPTIDE COMPOUND” (CHUGAI SEIYAKU KABUSHIKI KAISHA, priority 2021, published 2024).
Numbered stars: 1 amine (or outer) side, 2 acyl side, 3 side chain; on linkers, the order of the positions; unused ones are H or OH. Bridge positions count the residues as written; N and C are the ends. Square brackets hold non-standard residues; d marks the D form. Peptide text beside a SMILES is read from it. * marks the point of attachment. NMeAbu(3,3-F2-piperidino) = CN[C@@H](CCN1CCCC(F)(F)C1)C(=O)O; hPhe(3-Cl-4-CF3) = N[C@@H](CCc1ccc(C(F)(F)F)c(Cl)c1)C(=O)O; hPhe(3-F,4-CF3) = N[C@@H](CCc1ccc(C(F)(F)F)c(F)c1)C(=O)O; Pro(cis-4-Ph) = O=C(O)[C@@H]1C[C@H](c2ccccc2)CN1; NMePhe(3-Cl) = CN[C@@H](Cc1cccc(Cl)c1)C(=O)O; NMePhe(4-Cl) = CN[C@@H](Cc1ccc(Cl)cc1)C(=O)O; X51 = CN([C@@](C)(Cc1ccccc1)C(=O)[*:2])[*:1]; NMePhe(2-F) = CN[C@@H](Cc1ccccc1F)C(=O)O; NMeGly(cPent) = CN[C@H](C(=O)O)C1CCCC1; Phe(3-I) = N[C@@H](Cc1cccc(I)c1)C(=O)O; NMeY = CN[C@@H](Cc1ccc(O)cc1)C(=O)O; Pip(4-oxo) = O=C1CCN[C@H](C(=O)O)C1; NMeCha = CN[C@@H](CC1CCCCC1)C(=O)O; NMeChg = CN[C@H](C(=O)O)C1CCCCC1; NMeF = CN[C@@H](Cc1ccccc1)C(=O)O; NMeD = CN[C@@H](CC(=O)O)C(=O)O; NMeL = CN[C@@H](CC(C)C)C(=O)O; NMeV = CN[C@H](C(=O)O)C(C)C; d(β3hA) = C[C@@H](N)CC(=O)O; NMeA = CN[C@@H](C)C(=O)O; Nle = CCCC[C@H](N)C(=O)O; Piperidide = C1CCN(*)CC1; Ac5c = NC1(C(=O)O)CCCC1; Aze = O=C(O)[C@@H]1CCN1; Sar = CNCC(=O)O

Test system: Human pancreatic cancer cell line AsPC-1 (G12D mutation Kras)
Test: AsPC-1 cell growth inhibition (AsPC-1 CGI)
Format: cell-based
Conditions: read-out: AsPC-1 cell growth inhibition, 50% growth inhibitory concentration (IC50 value); 96 hours, CellTiter-Glo, values classified in ranges
Method: Test compounds were serially dilated with dimethyl sulfoxide, and 200 nL was then dispensed to a U-bottom 96-well plate using Labcyte Echo. […] The cell suspension was dispensed to a. plate containing a test compound at 100 μL per well and incubated at 37° C. in a 5% carbon dioxide gas incubator. 96 hours later, 80 μL of CellTiter-Glo (Promega) was added to each well and fluorescence was measured.

Row | Structure (SMILES) | IC50 [nM]
1 | CCCC[C@@H]1NC(=O)[C@H](Cc2cccc(I)c2)NC(=O)CN(C)C(=O)[C@H](Cc2ccc(Cl)cc2)N(C)C(=O)CN(C)C(=O)CN(C)C(=O)[C@H]([C@@H](C)CC)NC(=O)[C@H](CC(C)C)N(C)C(=O)C[C@@H](C(=O)N2CCCCC2)N(C)C(=O)[C@H](CC(C)C)NC(=O)[C@H](Cc2cccc(Cl)c2)N(C)C1=O [Compound 1044] ([NMeL]I[Sar][Sar][NMePhe(4-Cl)][Sar][Phe(3-I)][Nle][NMePhe(3-Cl)]L[NMeD]-Piperidide; lactam N-11) | > 500
2 | CC[C@H](C)[C@@H]1NC(=O)[C@H](CC(C)C)N(C)C(=O)C[C@@H](C)NC(=O)[C@H](C(C)C)N(C)C(=O)C2(CCCC2)NC(=O)[C@@H]2CCCN2C(=O)[C@H](CCc2ccc(C(F)(F)F)c(Cl)c2)NC(=O)CN(C)C(=O)[C@H](CC2CCCCC2)N(C)C(=O)[C@@H]2CCCN2C(=O)CN(C)C1=O [Compound 1050] (cyclo([Ac5c][NMeV][d(β3hA)][NMeL]I[Sar]P[NMeCha][Sar][hPhe(3-Cl-4-CF3)]P)) | > 500
3 | CC[C@H](C)[C@@H]1NC(=O)[C@H](CC(C)C)N(C)C(=O)C[C@@H](C(=O)N2CCCCC2)N(C)C(=O)[C@H](C2CCCCC2)N(C)C(=O)C2(CCCC2)NC(=O)[C@@H]2C[C@H](c3ccccc3)CN2C(=O)[C@H](CCc2ccc(C(F)(F)F)c(Cl)c2)NC(=O)CN(C)C(=O)[C@H](CC2CCCCC2)N(C)C(=O)[C@@H]2CCN2C(=O)[C@H](C)N(C)C1=O [Compound 1053] ([NMeL]I[NMeA][Aze][NMeCha][Sar][hPhe(3-Cl-4-CF3)][Pro(cis-4-Ph)][Ac5c][NMeChg][NMeD]-Piperidide; lactam N-11) | > 500
4 | CCCC[C@@H]1NC(=O)[C@H](Cc2cccc(I)c2)NC(=O)CN(C)C(=O)[C@H](Cc2ccc(OC)cc2)N(C)C(=O)[C@@H]2CCN2C(=O)CN(C)C(=O)[C@H]([C@@H](C)CC)NC(=O)[C@H](CC(C)C)N(C)C(=O)C[C@@H](C(=O)N2CCCCC2)N(C)C(=O)[C@H](CC(C)C)NC(=O)[C@](C)(Cc2ccccc2)N(C)C1=O [Compound 1058] ([NMeL]I[Sar][Aze][NMeY](Me)[Sar][Phe(3-I)][Nle][X51]L[NMeD]-Piperidide; lactam N-11) | > 500
5 | CC[C@H](C)[C@@H]1NC(=O)[C@H](CC(C)C)N(C)C(=O)C[C@@H](C(=O)N2CCCCC2)N(C)C(=O)[C@H](CC(C)C)N(C)C(=O)C2(CCCC2)NC(=O)[C@@H]2CCCN2C(=O)[C@H](CCc2ccc(C(F)(F)F)c(F)c2)NC(=O)CN(C)C(=O)[C@H](Cc2ccc(Cl)cc2)N(C)C(=O)CN(C)C(=O)CN(C)C1=O [Compound 1061] ([NMeL]I[Sar][Sar][NMePhe(4-Cl)][Sar][hPhe(3-F,4-CF3)]P[Ac5c][NMeL][NMeD]-Piperidide; lactam N-11) | > 500
6 | CC[C@H](C)[C@@H]1NC(=O)[C@H](CC(C)C)N(C)C(=O)C[C@@H](C(=O)N(C)C)N(C)C(=O)[C@H](C2CCCC2)N(C)C(=O)C2(CCCC2)NC(=O)[C@H](Cc2ccc(Cl)cc2)N(C)C(=O)[C@H](CCc2ccc(C(F)(F)F)c(Cl)c2)NC(=O)CN(C)C(=O)[C@H](CC2CCCCC2)N(C)C(=O)[C@@H]2CCN2C(=O)[C@H](C)N(C)C1=O [Compound 1063] ([NMeL]I[NMeA][Aze][NMeCha][Sar][hPhe(3-Cl-4-CF3)][NMePhe(4-Cl)][Ac5c][NMeGly(cPent)][NMeD]-NMe2; lactam N-11) | > 500
7 | CC[C@H](C)[C@@H]1NC(=O)[C@H](C)N(C)C(=O)C[C@@H](C)NC(=O)[C@H](C2CCCC2)N(C)C(=O)C2(CCCC2)NC(=O)[C@@H]2CCCN2C(=O)[C@H](CCc2ccc(C(F)(F)F)c(Cl)c2)NC(=O)CN(C)C(=O)[C@H](Cc2ccccc2F)N(C)C(=O)[C@@H]2CCCN2C(=O)CN(C)C1=O [Compound 1077] (cyclo([Ac5c][NMeGly(cPent)][d(β3hA)][NMeA]I[Sar]P[NMePhe(2-F)][Sar][hPhe(3-Cl-4-CF3)]P)) | > 500
8 | CC[C@H](C)[C@@H]1NC(=O)[C@H](C)N(C)C(=O)C[C@@H](C)NC(=O)[C@H](C(C)C)N(C)C(=O)[C@H](Cc2ccccc2)N(C)C(=O)[C@H](CC(C)C)N(C)C(=O)[C@H](CCc2ccc(C(F)(F)F)c(Cl)c2)NC(=O)CN(C)C(=O)[C@H](Cc2ccc(Cl)cc2)N(C)C(=O)CN(C)C(=O)CN(C)C1=O [Compound 1079] (cyclo(I[Sar][Sar][NMePhe(4-Cl)][Sar][hPhe(3-Cl-4-CF3)][NMeL][NMeF][NMeV][d(β3hA)][NMeA])) | > 500
9 | CC[C@H](C)[C@@H]1NC(=O)[C@H](CC(C)C)N(C)C(=O)C[C@@H](C(=O)N(C)C)N(C)C(=O)[C@H](C2CCCC2)N(C)C(=O)[C@H](C)NC(=O)[C@H](CCN2CCCC(F)(F)C2)N(C)C(=O)[C@H](CCc2ccc(C(F)(F)F)c(Cl)c2)NC(=O)CN(C)C(=O)[C@H](CC2CCCCC2)N(C)C(=O)[C@@H]2CCN2C(=O)[C@H](C)N(C)C1=O [Compound 1081] ([NMeL]I[NMeA][Aze][NMeCha][Sar][hPhe(3-Cl-4-CF3)][NMeAbu(3,3-F2-piperidino)]A[NMeGly(cPent)][NMeD]-NMe2; lactam N-11) | > 500
10 | CC[C@H](C)[C@@H]1NC(=O)[C@H](CC(C)C)N(C)C(=O)C[C@@H](C(=O)N2CCCCC2)N(C)C(=O)[C@H](C2CCCCC2)N(C)C(=O)C2(CCCC2)NC(=O)[C@@H]2CC(=O)CCN2C(=O)[C@H](CCc2ccc(C(F)(F)F)c(Cl)c2)NC(=O)CN(C)C(=O)[C@H](CC2CCCCC2)N(C)C(=O)CN(C)C(=O)CN(C)C1=O [Compound 1089] ([NMeL]I[Sar][Sar][NMeCha][Sar][hPhe(3-Cl-4-CF3)][Pip(4-oxo)][Ac5c][NMeChg][NMeD]-Piperidide; lactam N-11) | > 500
